Results reported in US8557848B2, “4,5-ring annulated indole derivatives for treating or preventing of HCV and related viral infections” (Merck Sharp & Dohme Corp., priority 2006, dated 2013).
Where two headings read alike, the source gives them in different places.

How the values were obtained:
[1] = target: T1, HCV NS5B polymerase (NS5BΔCT21, from HCV-Con 1 isolate, genotype 1b) (Hepatitis C virus genotype 1b, UniProt Q9WMX2); assay: HCV NS5B Polymerase Inhibition Assay; type: biochemical
T1 construct: A soluble C-terminal 21-amino acid truncated NS5B enzyme form; polyhistidine (C); made in house; host or cells: Escherichia coli
Outline: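 His-tagged NS5BΔCT21 (30 or 150 nM) with 0.03 μM DCoH75 RNA template, 0.25 mM GAU, 0.1 μM ATP/GTP/UTP, 0.026 μM CTP plus [^33P]-CTP, pH 7.3, 2% DMSO; 2 h at 22° C. Incorporated radioactivity counted after filter capture. IC50 from 10-point 2-fold dilutions (top 200 μM to 1 μM) fitted to Hill equation.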

[2] = test system: HCV replicon cells (replicon RNA level); assay: Cell-Based HCV Replicon Assay; details: Hepatitis C virus, 72 h
Outline: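 Replicon cells at 5000/well received 10 serial 2-fold compound dilutions in 0.5% DMSO, 5% FBS, harvested day 3. Replicon RNA quantified by multiplex Taqman RT-PCR on NS5B versus GAPDH; EC50 and EC90 taken at ΔCT = 1 and 3.2 above baseline from sigmoid fits.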

[3] = NS5B polymerase inhibition, [33P]-CTP incorporation, 22° C. for 2 hours, read-out: IC50
[4] = replicon RNA level by real time PCR (Taqman), cells harvested on day 3, read-out: EC50

SMILES	IC50 [1, 3]	EC50 [2, 4]	EC50 [2]	IC50 [1]
CS(=O)(=O)NC(=O)c1c(-c2ccc[nH]c2=O)c2c3c(c(F)cc2n1Cc1cc2ccccc2nc1Cl)CCO3 [Compound 196]	< 25 nM	< 500 nM	–	–
CC(C)S(=O)(=O)NC(=O)c1c(-c2ccc[nH]c2=O)c2c3occc3c(F)cc2n1Cc1ccccc1F [Compound 163]	< 25 nM	< 500 nM	–	–
CC(C)(C)OC(=O)N(C(=O)OC(C)(C)C)c1cc(Cn2c(C(=O)NS(=O)(=O)C3CC3)c(-c3ccc[nH]c3=O)c3c4occc4c(F)cc32)c(F)cn1 [Compound 227]	> 100 nM	< 500 nM	–	–
Nc1cc(Cn2c(C(=O)O)c(-c3ccc[nH]c3=O)c3c4scnc4ccc32)ccn1 [Compound 13]	> 100 nM	> 1500 nM	–	–
CS(=O)(=O)NC(=O)c1c(-c2ccc[nH]c2=O)c2c3c(c(F)cc2n1Cc1csc(C(N)=O)c1)CCO3 [Compound 167]	< 25 nM	< 500 nM	–	–
CC1(C)COc2c1ccc1c2c(-c2ccc[nH]c2=O)c(C(=O)O)n1Cc1cc2ccccc2nc1Cl [Compound 231]	< 25 nM	–	< 500 nM	–
O=C(O)c1c(-c2ccc[nH]c2=O)c2c3occc3c(F)cc2n1Cc1cc([N+](=O)[O-])ccc1F [Compound 111]	< 25 nM	< 500 nM	–	–
Cc1cc2ccc3c(c(-c4ccc[nH]c4=O)c(C(=O)NS(C)(=O)=O)n3Cc3cc(F)ccc3F)c2o1 [Compound 147]	< 25 nM	> 1500 nM	–	–
O=C(O)c1c(-c2ccc[nH]c2=O)c2c3occc3ccc2n1Cc1ccccc1F [Compound 1]	< 25 nM	< 500 nM	–	–
O=C(O)c1c(-c2ccc[nH]c2=O)c2c3occc3ccc2n1Cc1ccc(F)cc1F [Compound 16]	< 25 nM	500 to 1500 nM	–	–
O=C(NS(=O)(=O)C1CC1)c1c(-c2ccc[nH]c2=O)c2c3occc3c(F)cc2n1Cc1cc2nc[nH]c2cc1Cl [Compound 205]	< 25 nM	< 500 nM	–	–
O=C(O)c1c(-c2ccc[nH]c2=O)c2c3occc3c(F)cc2n1Cc1cc2[nH]c(=O)[nH]c2cc1Cl [Compound 131]	< 25 nM	< 500 nM	–	–
O=C(O)c1c(-c2ccc[nH]c2=O)c2c3occc3c(F)cc2n1Cc1cc2ccccc2[nH]c1=O [Compound 115]	< 25 nM	< 500 nM	–	–
C[C@@H]1COc2c1ccc1c2c(-c2ccc[nH]c2=O)c(C(=O)NS(C)(=O)=O)n1Cc1cc(F)ccc1F [Compound 148]	< 25 nM	< 500 nM	–	–
CS(=O)(=O)NC(=O)c1c(-c2ccc[nH]c2=O)c2c3occc3ccc2n1Cc1ccc(F)cc1F [Compound 4]	25 to 100 nM	< 500 nM	–	–
O=C(O)c1c(-c2ccc[nH]c2=O)c2c3ncsc3ccc2n1Cc1ccc(F)cc1F [Compound 17]	< 25 nM	> 1500 nM	–	–
O=C(O)c1c(-c2ccc[nH]c2=O)c2c3occc3c(F)cc2n1Cc1cc(=O)[nH]cc1Br [Compound 135]	< 25 nM	< 500 nM	–	–
O=C(O)c1c(-c2ccc[nH]c2=O)c2c3ccoc3ccc2n1Cc1cc(F)ccc1F [Compound 40]	25 to 100 nM	> 1500 nM	–	–
COC(=O)c1ccc(F)c(Cn2c(C(=O)NS(=O)(=O)C3CC3)c(-c3ccc[nH]c3=O)c3c4occc4ccc32)c1 [Compound 192]	< 25 nM	< 500 nM	–	–
Cc1cc2ccc3c(c(-c4ccc[nH]c4=O)c(C(=O)NS(C)(=O)=O)n3Cc3ccccc3F)c2o1 [Compound 132]	25 to 100 nM	500 to 1500 nM	–	–
CCc1coc2c1ccc1c2c(-c2ccc[nH]c2=O)c(C(=O)O)n1Cc1ccccc1F [Compound 43]	> 100 nM	> 1500 nM	–	–
Cc1ccccc1Cn1c(C(=O)NS(C)(=O)=O)c(-c2ccc[nH]c2=O)c2c3ncsc3ccc21 [Compound 51]	–	< 500 nM	–	< 25 nM
CS(=O)(=O)NC(=O)c1c(-c2ccc[nH]c2=O)c2c3occc3c(F)cc2n1Cc1ccc2onc(N)c2c1 [Compound 170]	< 25 nM	< 500 nM	–	–
COc1ccc(S(=O)(=O)NC(=O)c2c(-c3ccc[nH]c3=O)c3c4ccoc4ccc3n2Cc2ccc(F)cc2F)cc1 [Compound 10]	25 to 100 nM	> 1500 nM	–	–

SMILES	IC50 [1, 3]	EC50 [2, 4]	EC50 [2]	IC50 [1]
CS(=O)(=O)NC(=O)c1c(-c2ccc[nH]c2=O)c2c3occc3c(F)cc2n1Cc1cc(Cl)nc2ccccc12 [Compound 193]	< 25 nM	500 to 1500 nM	–	–
NC(=O)c1ncc(Cn2c(C(=O)O)c(-c3ccc[nH]c3=O)c3c4occc4c(F)cc32)s1 [Compound 98]	25 to 100 nM	500 to 1500 nM	–	–
O=C(NS(=O)(=O)C1CC1)c1c(-c2ccc[nH]c2=O)c2c3occc3c(F)cc2n1Cc1cc2ccccc2nc1Cl [Compound 211]	< 25 nM	< 500 nM	–	–
CC(C)S(=O)(=O)NC(=O)c1c(-c2ccc[nH]c2=O)c2c3occc3ccc2n1Cc1cc(F)ccc1F [Compound 63]	< 25 nM	< 500 nM	–	–
CS(=O)(=O)NC(=O)c1c(-c2ccc[nH]c2=O)c2c3occc3cc(F)c2n1Cc1cc(F)ccc1F [Compound 151]	< 25 nM	500 to 1500 nM	–	–
CCCS(=O)(=O)NC(=O)c1c(-c2ccc[nH]c2=O)c2c3occc3c(F)cc2n1Cc1cc2ccccc2nc1Cl [Compound 213]	< 25 nM	< 500 nM	–	–
CCOC(=O)c1c(-c2ccc[nH]c2=O)c2c3occc3c(F)cc2n1Cc1cc(C(N)=O)ccc1F [Compound 130]	25 to 100 nM	< 500 nM	–	–
O=C(O)c1c(-c2ccc[nH]c2=O)c2c3occc3c(F)cc2n1Cc1ccc2nc[nH]c2c1 [Compound 91]	< 25 nM	< 500 nM	–	–
O=C(O)c1c(-c2ccc[nH]c2=O)c2c3occc3c(F)cc2n1Cc1cc2ccccc2nc1Cl [Compound 126]	–	< 500 nM	–	< 25 nM
CS(=O)(=O)Nc1cccc(S(=O)(=O)NC(=O)c2c(-c3ccc[nH]c3=O)c3c4ccoc4ccc3n2Cc2ccc(F)cc2F)c1 [Compound 11]	25 to 100 nM	> 1500 nM	–	–
CNC(=O)c1ccc(F)c(Cn2c(C(=O)O)c(-c3ccc[nH]c3=O)c3c4occc4c(F)cc32)c1 [Compound 121]	< 25 nM	< 500 nM	–	–
Nc1ccccc1S(=O)(=O)NC(=O)c1c(-c2ccc[nH]c2=O)c2c3occc3c(F)cc2n1Cc1cc2ccccc2nc1Cl [Compound 223]	< 25 nM	< 500 nM	–	–
C[C@@H]1COc2c1ccc1c2c(-c2ccc[nH]c2=O)c(C(=O)NS(=O)(=O)C2CC2)n1Cc1cc(F)ccc1F [Compound 173]	< 25 nM	< 500 nM	–	–
Cc1cccc(Cn2c(C(=O)NS(C)(=O)=O)c(-c3ccc[nH]c3=O)c3c4occc4ccc32)c1F [Compound 66]	< 25 nM	< 500 nM	–	–
O=C(O)c1c(-c2ccc[nH]c2=O)c2c3sccc3ccc2n1Cc1ccccc1F [Compound 34]	25 to 100 nM	500 to 1500 nM	–	–
CS(=O)(=O)NC(=O)c1c(-c2ccc[nH]c2=O)c2c3sccc3ccc2n1Cc1cc(F)ccc1F [Compound 52]	< 25 nM	> 1500 nM	–	–
NC(=O)c1cc(Cn2c(C(=O)O)c(-c3ccc[nH]c3=O)c3c4occc4c(F)cc32)cs1 [Compound 97]	< 25 nM	< 500 nM	–	–
O=c1[nH]cccc1-c1c(C2=NS(=O)(=O)c3ccccc3N2)n(Cc2ccccc2F)c2cc(F)c3ccoc3c12 [Compound 184]	< 25 nM	< 500 nM	–	–
NCc1cccc(Cn2c(C(=O)O)c(-c3ccc[nH]c3=O)c3c4occc4c(F)cc32)c1 [Compound 81]	< 25 nM	< 500 nM	–	–
O=C(O)c1c(-c2ccc[nH]c2=O)c2c3scnc3ccc2n1Cc1ccc(F)cc1F [Compound 16]	> 100 nM	> 1500 nM	–	–
CS(=O)(=O)NC(=O)c1c(-c2ccc[nH]c2=O)c2c3occc3ccc2n1Cc1cc(C(N)=O)ccc1F [Compound 161]	< 25 nM	< 500 nM	–	–
Nc1ccccc1S(=O)(=O)NC(=O)c1c(-c2ccc[nH]c2=O)c2c3occc3c(F)cc2n1Cc1ccccc1F [Compound 202]	< 25 nM	< 500 nM	–	–
CS(=O)(=O)NC(=O)c1c(-c2ccc[nH]c2=O)c2c3occc3c(F)cc2n1Cc1ccnc(N)c1 [Compound 133]	< 25 nM	< 500 nM	–	–
